{"source": "patent US20170280722A1", "about": "“COMPOSITIONS AND METHODS FOR CONTROL OF SAND FLIES AND OTHER BLOOD SUCKING INSECTS” (GENESIS LABORATORIES, INC., priority 2010, published 2017)", "key": {"[1]": {"system": "P. argentipes 1st instar larvae", "experiment": "Larval bioassay with feces of insecticide treated R. rattus (feed through)", "assay_type": "in vivo", "conditions": "for Mean ± SEM survival (days) of P. arg larvae post-exposure / P. argentipes larvae mortality (%): feces of R. rattus day-1 post treatment", "protocol": "In the first study, a feed through study comparing diflubenzuron, fipronil, ivermectin, and eprinomectin was conducted on rats (Rattus rattus). Fecal samples were collected after three (3) consecutive days of administration of the trial products. The efficacy of the drugs administered during the blind study underwent testing in larval bioassays with P. argentipes 1st instar larvae. Commercially available chicken feed was mixed with the appropriate concentrations of each insecticide compound and used as is in the trial.\nTwelve (12) locally purchased rats (Rattus rattus) of mixed sex were utilized in a small study testing the efficacy of four feed through insecticides. Five treatment groups of two rats each were randomly identified and fed diets consisting of locally available chicken feed treated with one of the following compounds: diflubenzuron (0.048%), fipronil (0.015%), ivermectin (0.025%), and eprinomectin (0.01% and 0.025%). Two rats served as control and were fed only chicken feed. Rats were fed 20 g of their assigned diet daily at the same time, with daily consumption and spillage calculated for a period of three (3) days. Sand fly analyses were conducted simultaneously.\n[…] Collected feces were dried at approximately 40° C. in an oven then ground into a fine powder utilizing a pestle and mortar and frozen at −20° C. until larval bioassays were initiated.\nLarval bioassay pots were prepared using 48 mm, 100 g round Dibbi jars. Dishes were prepared by burning several small holes into the bottom of the dish with a soldering iron and filling them with a small layer of plaster (¼ to ½ inch depth). Approximately 15-20 holes were punctured into the lids using 24 gauge needles. For simpler mortality counting, pots were quartered and each quadrant numbered using an ultra fine black Sharpie.\nFor each individual post-treatment bioassays, thirteen (13) dishes were loaded with 10 day old 1st instar P. argentipes larvae; twelve (12) pots were provided with approximately 0.005 g of the treated feces, with two sample pots per treated bandicoot rat, and one overall control sample fed only standard larval diet. See Table 1 for sample/treatment correlations. Larvae were loaded into bioassay pots and provided with their designated treatment sample. Mortality counts of larvae were conducted every 24 hours post-treatment until 100% mortality, or pupation, was reached."}, "[2]": {"conditions": "cited from earlier work"}, "P. papatasi larvae": {"system": "P. papatasi larvae", "experiment": "Larval bioassay with feces of sand rats fed imidacloprid diet", "assay_type": "in vivo", "protocol": "A second trial was carried out using sand rats (Psammomys obesus) as the carrier of sand flies (P. papatasi) and imidacloprid as the insecticide. This rodent species was targeted since it serves as the source of blood meals for adult sand flies and its feces serves as a platform for larval development in Middle East ecosystems.\n(§1) The test insecticide, imidacloprid at 250 ppm (0.025%) was incorporated into the feed together with orange, yellow, or green dye and fed to rats housed in standard laboratory caging. The treatment groups consisted of 6 males and 9 females; Controls: 3 males and 4 females with a body weight between 125-250 g.\n(§2) DESIGN—Five sand rats were provided the reformulated diet for each of the treatment levels (50 ppm, 100 ppm, 250 ppm). Five sand rats were provided with control diets without imidacloprid. Two additional rats were provided with control diets containing green dye.\n(§3) Feces were collected from the Alpha-Dri bedding for the last 5 days of the 7 day treatment period. Feces were weighed and transferred to a plastic bag labeled with the animal's cage identification number and stored frozen at −20° C.\nBioassays of the larval groups comprised: four imidacloprid treatments (0, 50, 100, 250 ppm) (number of replicates per assay n=5), one control group (n=8), and one green dye treatment (n=2). These bioassays were conducted with 1st and 2-3rd instar larvae and were repeated three times. Bioassays were conducted in 6 well culture plates (Corning, Inc) with 5 ml of plaster of Paris in the bottom of each well. The plaster was saturated with distilled water before the experiment, and was blotted with filter paper to remove standing water immediately before use. The effect of imidacloprid treatment on 1st and 2nd-3rd instar larvae was tested. The control group was provided using standard larval diet. This allowed comparison of sand fly survival between those feeding on feces from sand rats that fed on non treated feed and those fed on standard sand fly diet. First instar larvae were obtained by adding 50 eggs to each well and allowed to hatch and fed on regular diet for 2-3 days. At this time ca. 0.1 g of crushed pellets or control feed was added. Second-3rd instar larvae were obtained by letting 1st instar larvae grow on standard diet in the wells until moulted. At this, time crushed pellets or control feed (0.1 g) was added. […] The wells of the plate were covered with parafilm which was punctured with a needle to allow for ventilation. The wells were kept in a humidified room (26° C./75% RH) inside a covered tube which contained a saturated sponge. The container was placed in an environmental chamber at 28 C, 90% RH, and a photoperiod of 14:10 (L:D) h. […] Alimentation was noted by observation of the presence of frass in the vials and dark material in the guts of the larvae."}, "[3]": {"experiment": "Acceptance and tolerance of imidacloprid diet by sand rats", "assay_type": "in vivo, Psammomys obesus", "from_the_text": "as §1, §2, §3"}}, "data": [{"molecule": "eprinomectin", "values": [{"measurement": "Mean ± SEM survival (days) of P. arg larvae post-exposure", "setting": "[1]; 100 ppm", "result": "12.65 ± 0.70", "unit": "days"}, {"measurement": "P. argentipes larvae mortality (%)", "setting": "[1]; 100 ppm", "result": 100, "unit": "%"}, {"measurement": "Mean ± SEM survival (days) of P. arg larvae post-exposure", "setting": "[1]; 250 ppm", "result": "10.70 ± 0.38", "unit": "days"}, {"measurement": "P. argentipes larvae mortality (%)", "setting": "[1]; 250 ppm", "result": 100, "unit": "%"}]}, {"molecule": "CC1(C)C(C=C(Cl)Cl)C1C(=O)OCc1cccc(Oc2ccccc2)c1", "note": "(stereo not shown) [permethrin]", "values": [{"measurement": "Time within which the majority of the product is excreted", "setting": "[2]; rodents, oral treatment", "result": "≤ 48", "unit": "h"}, {"measurement": "Absorption by the skin", "setting": "[2]; topical", "result": "not readily absorbed by the skin"}]}, {"molecule": "O=C(NC(=O)c1c(F)cccc1F)Nc1ccc(Cl)cc1", "note": "[diflubenzuron]", "values": [{"measurement": "Mean ± SEM survival (days) of P. arg larvae post-exposure", "setting": "[1]; 480 ppm", "result": "9.75 ± 0.71", "unit": "days"}, {"measurement": "P. argentipes larvae mortality (%)", "setting": "[1]; 480 ppm", "result": 100, "unit": "%"}]}, {"molecule": "O=[N+]([O-])NC1=NCCN1Cc1ccc(Cl)nc1", "note": "[imidacloprid]", "values": [{"measurement": "Residue in blood", "setting": "[2]; three days post oral treatment", "result": "zero residue"}, {"measurement": "Survivorship for 1st instar larvae", "setting": "P. papatasi larvae; by day 5, feces from sand rats administered 100 ppm", "result": "< 5", "unit": "%"}, {"measurement": "Survivorship for 1st instar larvae", "setting": "P. papatasi larvae; by day 5, feces from sand rats administered 250 ppm", "result": "< 5", "unit": "%"}, {"measurement": "Survivorship for 2nd/3rd instar larvae", "setting": "P. papatasi larvae; by day 7, feces from sand rats administered 250 ppm", "result": 10, "unit": "%"}, {"measurement": "Larval mortality", "setting": "P. papatasi larvae; by seven days, feces from diets containing 250 ppm", "result": 90, "unit": "%"}, {"measurement": "Larvicidal effect of feces for 1st instar larvae", "setting": "P. papatasi larvae; sand rats fed diets of 100 ppm and 250 ppm", "result": "rapidly and highly larvicidal"}, {"measurement": "Difference in fecal production between treatment groups", "setting": "[3]; P=0.1199", "result": "no significant difference"}, {"measurement": "Health of sand rats on diet", "setting": "[3]; diets 50, 100, 250 ppm, 7 day treatment", "result": "without any apparent health abnormalities"}]}, {"molecule": "ivermectin", "values": [{"measurement": "Mean ± SEM survival (days) of P. arg larvae post-exposure", "setting": "[1]; 250 ppm", "result": "7.40 ± 0.11", "unit": "days"}, {"measurement": "P. argentipes larvae mortality (%)", "setting": "[1]; 250 ppm", "result": 100, "unit": "%"}, {"measurement": "Day of observation by which 100% larval mortality was reached", "setting": "[1]; feces of R. rattus fed 0.025% in feed", "result": "≤ 8", "unit": "days"}]}]}
